Data from US9399788B2, “Method for inspecting susceptibility of bacteria or fungi to antimicrobial drug and system for use in the same” (priority 2011, dated 2016).
≈ marks a conversion by molar mass, not a printed value.

Tests used:
[1] = test system: #2 strain of Pseudomonas aeruginosa (multi-drug resistant strain); test: MIC by broth microdilution method according to the CLSI standards (standard method); type: cell-based
[2] = test system: #2 strain of Pseudomonas aeruginosa (multi-drug resistant strain); test: MIC by method using micro-device 1 (microscope observation of growth and shape in flow channel); type: cell-based; conditions: for MIC: Pseudomonas aeruginosa, read-out: MIC (minimum inhibitory concentration)
Method: Thus, antimicrobial drug solutions were prepared.
Pseudomonas aeruginosa was pre-cultured at 37° C. for 24 hours using a Mueller-Hinton Agar (Becton, Dickinson and Company) plate. A colony was suspended in a Mueller-Hinton broth so as to have MacFarland=0.5 (OD600=0.132). As Pseudomonas aeruginosa, multi-drug resistant strains #2 and #5 (available from BML) and an S1 strain (susceptibility strain, available from BML) were used.
The antimicrobial drug solution obtained in the (2) above and the culture solution obtained in the (3) above were mixed at a volume ratio of 1 9, and 1 μL of a resultant mixture was injected into each inlet of a micro-device 1. As a control, sterile water as a substitute for the antimicrobial drug solution and the culture solution were mixed at a volume ratio of 1:9, and 1 μL of a resultant mixture was injected into an inlet of the micro-device 1. Then, the micro-device 1 was placed in a petri dish, and the petri dish was placed in an airtight container. Kimwipe (Trade Mark) containing water was placed in each of the petri dish and the airtight container. The airtight container was placed in an incubator at 37° C. and incubated for 3 hours. The relative humidity of each of the airtight container and the petri dish was 97%.
The micro-device 1 was taken out of the airtight container, and an increase or decrease in the amount of bacteria and a change in shape relative to the control in an observation area was checked by a microscope, and the MIC (minimum inhibitory concentration) was determined.

[3] = method using the micro-device, 37° C., 3 hours incubation

| Compound | MIC ([1]; Pseudomonas aeruginosa, standard method (broth microdilution, CLSI), read-out: MIC (minimum inhibitory concentration)) [µg/mL] | MIC [2, 3] [µg/mL] | determination based on the break point of CLSI ([1]; MIC by standard method) | MIC (minimum inhibitory concentration) ([1]; standard method (broth microdilution, CLSI)) [µg/mL] | determination based on the break point of CLSI ([2]; MIC by method using the micro-device) | MIC (minimum inhibitory concentration) [2, 3] [µg/mL] |
| --- | --- | --- | --- | --- | --- | --- |
| NCC[C@H](O)C(=O)N[C@@H]1C[C@H](N)[C@@H](O[C@H]2O[C@H](CN)[C@@H](O)[C@H](O)[C@H]2O)[C@H](O)[C@H]1O[C@H]1O[C@H](CO)[C@@H](O)[C@H](N)[C@H]1O [AMK, Amikacin] | 64 (≈ 109 µM) | ≥ 32 | – | – | – | – |
| O=C(O)c1cn(C2CC2)c2cc(N3CCNCC3)c(F)cc2c1=O [CPFX, Ciprofloxacin] | – | ≥ 4 | – | – | – | – |
| Imipenem/Cilastatin [IPM] | – | – | Resistance (R) | 32 | Resistance (R) | 16 |
